US20210045385A1, “PYRIDAZINONE-SUBSTITUTED KETOXIMES AS HERBICIDES” (FMC Corporation, priority 2018, published 2021)

Experiments:
Type in all cases: in vivo
[1] = test system: blackgrass (Alopecurus myosuroides); assay: Test A postemergence, visual plant response rating; details: for Blackgrass plant response rating (0 to 100 scale): 500 g ai/ha, postemergence, 0 is no effect, 100 is complete control; for Blackgrass plant response rating: Postemergence, 125 g ai/ha, 0 to 100 scale (0 no effect, 100 complete control)
Summary of the method: (§1)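 Compared with untreated controls, treated plants received a visual injury score on a 0–100 scale around 10 days after application. The compound, in a non-phytotoxic solvent with surfactant, was given as a preemergence soil spray or postemergence at the one- to two-leaf stage.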

[2] = test system: pigweed (Amaranthus retroflexus); assay: Test A postemergence, visual plant response rating; details: for Pigweed plant response rating (0 to 100 scale): 500 g ai/ha, postemergence, 0 is no effect, 100 is complete control; for Pigweed plant response rating: Postemergence, 125 g ai/ha, 0 to 100 scale (0 no effect, 100 complete control)
Summary of the method: as §1

[3] = test system: kochia (Kochia scoparia); assay: Test A postemergence, visual plant response rating; details: for Kochia plant response rating (0 to 100 scale): 500 g ai/ha, postemergence, 0 is no effect, 100 is complete control; for Kochia plant response rating: Postemergence, 125 g ai/ha, 0 to 100 scale (0 no effect, 100 complete control)
Summary of the method: as §1

[4] = test system: barnyardgrass (Echinochloa crus-galli); assay: Test A postemergence, visual plant response rating; details: for Barnyardgrass plant response rating (0 to 100 scale): 500 g ai/ha, postemergence, 0 is no effect, 100 is complete control; for Barnyardgrass plant response rating: Postemergence, 125 g ai/ha, 0 to 100 scale (0 no effect, 100 complete control)
Summary of the method: as §1

[5] = test system: galium (catchweed bedstraw, Galium aparine); assay: Test A postemergence, visual plant response rating; details: for Galium plant response rating (0 to 100 scale): 500 g ai/ha, postemergence, 0 is no effect, 100 is complete control; for Galium plant response rating: Postemergence, 125 g ai/ha, 0 to 100 scale (0 no effect, 100 complete control)
Summary of the method: as §1

[6] = test system: corn (Zea mays); assay: Test A postemergence, visual plant response rating; details: for Corn plant response rating (0 to 100 scale): 500 g ai/ha, postemergence, 0 is no effect, 100 is complete control; for Corn plant response rating: Postemergence, 125 g ai/ha, 0 to 100 scale (0 no effect, 100 complete control)
Summary of the method: as §1

[7] = test system: ragweed (common ragweed, Ambrosia elatior); assay: Test A postemergence, visual plant response rating; details: for Ragweed plant response rating (0 to 100 scale): 500 g ai/ha, postemergence, 0 is no effect, 100 is complete control; for Ragweed plant response rating: Postemergence, 125 g ai/ha, 0 to 100 scale (0 no effect, 100 complete control)
Summary of the method: as §1

[8] = test system: foxtail, green (green foxtail, Setaria viridis); assay: Test A postemergence, visual plant response rating; details: for Foxtail, Green plant response rating (0 to 100 scale): 500 g ai/ha, postemergence, 0 is no effect, 100 is complete control; for Foxtail, Green plant response rating: Postemergence, 125 g ai/ha, 0 to 100 scale (0 no effect, 100 complete control)
Summary of the method: as §1

[9] = test system: Italian ryegrass (Lolium multiflorum); assay: Test A postemergence, visual plant response rating; details: for Ryegrass, Italian plant response rating (0 to 100 scale): 500 g ai/ha, postemergence, 0 is no effect, 100 is complete control; for Ryegrass, Italian plant response rating: Postemergence, 125 g ai/ha, 0 to 100 scale (0 no effect, 100 complete control)
Summary of the method: as §1

[10] = test system: wheat (Triticum aestivum); assay: Test A postemergence, visual plant response rating; details: for Wheat plant response rating (0 to 100 scale): 500 g ai/ha, postemergence, 0 is no effect, 100 is complete control; for Wheat plant response rating: Postemergence, 125 g ai/ha, 0 to 100 scale (0 no effect, 100 complete control)
Summary of the method: as §1

[11] = test system: rice (Oryza sativa); assay: Test B flooded paddy test, visual plant response rating; details: 250 g ai/ha, Flood, applied to paddy water, 2-leaf stage, evaluated after 13 to 15 days
Summary of the method: (§2)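 Compounds added straight into paddy water of pots flooded to 3 cm, with 2-leaf-stage plants of the four species; water level held throughout.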

[12] = test system: barnyardgrass (Echinochloa crus-galli); assay: as above; details: 250 g ai/ha, Flood, applied to paddy water, 2-leaf stage, evaluated after 13 to 15 days
Summary of the method: as §2

[13] = test system: ducksalad (Heteranhera limosa); assay: as above; details: 250 g ai/ha, Flood, applied to paddy water, 2-leaf stage, evaluated after 13 to 15 days
Summary of the method: as §2

[14] = test system: sedge, umbrella (small-flower umbrella sedge, Cyperus difformis); assay: as above; details: 250 g ai/ha, Flood, applied to paddy water, 2-leaf stage, evaluated after 13 to 15 days
Summary of the method: as §2

[15] = test system: pigweed (Amaranthus retroflexus); assay: Test A preemergence, visual plant response rating; details: approx. 10 days
Summary of the method: as §1

[16] = test system: kochia (Kochia scoparia); assay: Test A preemergence, visual plant response rating; details: approx. 10 days
Summary of the method: as §1

[17] = test system: barnyardgrass (Echinochloa crus-galli); assay: Test A preemergence, visual plant response rating; details: approx. 10 days
Summary of the method: as §1

[18] = test system: ragweed (common ragweed, Ambrosia elatior); assay: Test A preemergence, visual plant response rating; details: approx. 10 days
Summary of the method: as §1

[19] = test system: foxtail, green (green foxtail, Setaria viridis); assay: Test A preemergence, visual plant response rating; details: approx. 10 days
Summary of the method: as §1

[20] = test system: Italian ryegrass (Lolium multiflorum); assay: Test A preemergence, visual plant response rating; details: approx. 10 days
Summary of the method: as §1

| Compound | Blackgrass plant response rating (0 to 100 scale) [1] | Blackgrass plant response rating [1] | Pigweed plant response rating (0 to 100 scale) [2] | Pigweed plant response rating [2] | Kochia plant response rating (0 to 100 scale) [3] | Kochia plant response rating [3] | Barnyardgrass plant response rating (0 to 100 scale) [4] | Barnyardgrass plant response rating [4] | Galium plant response rating (0 to 100 scale) [5] | Galium plant response rating [5] | Corn plant response rating (0 to 100 scale) [6] | Corn plant response rating [6] | Ragweed plant response rating (0 to 100 scale) [7] | Ragweed plant response rating [7] | Foxtail, Green plant response rating (0 to 100 scale) [8] | Foxtail, Green plant response rating [8] | Ryegrass, Italian plant response rating (0 to 100 scale) [9] | Ryegrass, Italian plant response rating [9] | Wheat plant response rating (0 to 100 scale) [10] | Wheat plant response rating [10] | further results |
| --- | --- | --- | --- | --- | --- | --- | --- | --- | --- | --- | --- | --- | --- | --- | --- | --- | --- | --- | --- | --- | --- |
| CCO/N=C(/c1ccc(C)cc1)c1c(O)c(C)nn(C)c1=O [Compound 16] | 0 | 0 | 0 | 0 | 10 | 0 | 10 | 0 | 0 | 0 | 0 | 0 | 30 | 0 | 10 | 0 | 0 | 0 | 0 | 0 | Plant response rating, Rice (0 to 100 scale, 0 is no effect, 100 is complete control) [11]: 0; Plant response rating, Barnyardgrass (0 to 100 scale, 0 is no effect, 100 is complete control) [12]: 0; Plant response rating, Ducksalad (0 to 100 scale, 0 is no effect, 100 is complete control) [13]: 0; Plant response rating, Sedge, Umbrella (0 to 100 scale, 0 is no effect, 100 is complete control) [14]: 0; Pigweed plant response rating (0 to 100 scale) ([15]; 125 g ai/ha Preemergence): 0; Pigweed plant response rating (0 to 100 scale) ([15]; 500 g ai/ha Preemergence): 0; Kochia plant response rating (0 to 100 scale) ([16]; 125 g ai/ha Preemergence): 0; Kochia plant response rating (0 to 100 scale) ([16]; 500 g ai/ha Preemergence): 0; Barnyardgrass plant response rating (0 to 100 scale) ([17]; 125 g ai/ha Preemergence): 0; Barnyardgrass plant response rating (0 to 100 scale) ([17]; 500 g ai/ha Preemergence): 0; Ragweed plant response rating (0 to 100 scale) ([18]; 125 g ai/ha Preemergence): 0; Ragweed plant response rating (0 to 100 scale) ([18]; 500 g ai/ha Preemergence): 20; Foxtail, Green plant response rating (0 to 100 scale) ([19]; 125 g ai/ha Preemergence): 0; Foxtail, Green plant response rating (0 to 100 scale) ([19]; 500 g ai/ha Preemergence): 0; Ryegrass, Italian plant response rating (0 to 100 scale) ([20]; 125 g ai/ha Preemergence): 0; Ryegrass, Italian plant response rating (0 to 100 scale) ([20]; 500 g ai/ha Preemergence): 50 |
| CO/N=C(/c1cccc(C)c1C)c1c(O)c(C)nn(C)c1=O [Compound 23] | 50 | 20 | 80 | 20 | 30 | 10 | 0 | 0 | 60 | 50 | 0 | 0 | 50 | 40 | 0 | 0 | 50 | 30 | 0 | 0 | Plant response rating, Rice (0 to 100 scale, 0 is no effect, 100 is complete control) [11]: 0; Plant response rating, Barnyardgrass (0 to 100 scale, 0 is no effect, 100 is complete control) [12]: 0; Plant response rating, Ducksalad (0 to 100 scale, 0 is no effect, 100 is complete control) [13]: 0; Plant response rating, Sedge, Umbrella (0 to 100 scale, 0 is no effect, 100 is complete control) [14]: 0; Pigweed plant response rating (0 to 100 scale) ([15]; 125 g ai/ha Preemergence): 30; Pigweed plant response rating (0 to 100 scale) ([15]; 500 g ai/ha Preemergence): 80; Kochia plant response rating (0 to 100 scale) ([16]; 125 g ai/ha Preemergence): 0; Kochia plant response rating (0 to 100 scale) ([16]; 500 g ai/ha Preemergence): 20; Barnyardgrass plant response rating (0 to 100 scale) ([17]; 125 g ai/ha Preemergence): 0; Barnyardgrass plant response rating (0 to 100 scale) ([17]; 500 g ai/ha Preemergence): 20; Ragweed plant response rating (0 to 100 scale) ([18]; 125 g ai/ha Preemergence): 60; Ragweed plant response rating (0 to 100 scale) ([18]; 500 g ai/ha Preemergence): 90; Foxtail, Green plant response rating (0 to 100 scale) ([19]; 125 g ai/ha Preemergence): 0; Foxtail, Green plant response rating (0 to 100 scale) ([19]; 500 g ai/ha Preemergence): 50; Ryegrass, Italian plant response rating (0 to 100 scale) ([20]; 125 g ai/ha Preemergence): 40; Ryegrass, Italian plant response rating (0 to 100 scale) ([20]; 500 g ai/ha Preemergence): 90 |
